Experimental findings from patent US9029389B2 (Institut Pasteur Korea, priority 2011, dated 2015) are described below.

Where only a bound is given, the exact number is not on record here.

The test system of one series is M. tuberculosis H37Rv. Description: Acute TB mouse model of infection, bacterial load in lungs. It counts as in vivo, Mycobacterium tuberculosis. The conditions noted are these: 25 mg/kg oral gavage 5 times/week, 4 weeks of treatment.
The target of a further series is T1, Human 5-lipoxygenase (Homo sapiens, UniProt P09917).
T1 construct: purchased Cayman 60402; host or cells: insect cells
T1 sequence (P09917 1-674): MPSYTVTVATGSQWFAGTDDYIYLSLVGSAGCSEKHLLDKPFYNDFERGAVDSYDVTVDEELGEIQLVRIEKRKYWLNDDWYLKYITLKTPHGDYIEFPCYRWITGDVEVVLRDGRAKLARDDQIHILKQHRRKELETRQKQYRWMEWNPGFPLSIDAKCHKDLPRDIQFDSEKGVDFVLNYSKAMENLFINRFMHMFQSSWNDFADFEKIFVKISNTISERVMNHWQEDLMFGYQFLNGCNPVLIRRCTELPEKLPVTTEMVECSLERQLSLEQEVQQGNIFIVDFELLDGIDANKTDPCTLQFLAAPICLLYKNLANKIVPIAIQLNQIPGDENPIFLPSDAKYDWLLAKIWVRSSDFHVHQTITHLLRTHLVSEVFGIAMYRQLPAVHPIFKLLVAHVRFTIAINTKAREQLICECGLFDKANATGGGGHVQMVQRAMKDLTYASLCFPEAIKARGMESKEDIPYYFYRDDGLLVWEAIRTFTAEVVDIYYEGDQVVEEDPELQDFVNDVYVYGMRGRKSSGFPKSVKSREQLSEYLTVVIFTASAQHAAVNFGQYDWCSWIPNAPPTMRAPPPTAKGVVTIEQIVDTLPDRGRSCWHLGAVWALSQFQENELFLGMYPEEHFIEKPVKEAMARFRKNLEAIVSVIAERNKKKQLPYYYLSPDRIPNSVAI
The series can be described thus: Activity of compounds against 5-LO enzyme (LTB4 measurement and/or fluorescence method). It counts as biochemical. To be noted: for inhibition at 10 µM: 5-LO, single concentration of 10 uM in duplicate; for IC50: 6 or 11 point dose response in duplicate. Put shortly:
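Two read-outs: LTB4 measured by EIA and/or LC/MS/MS with LTB4-d4 standard after 15 min RT compound preincubation with insect-cell 5-LO and a 5 min 37 °C reaction on 3 uM arachidonic acid (0.1 mM ATP, pH 7.4). The room-temperature fluorescence format used 20 uM H2DCFDA, 100 uM ATP, 3 uM arachidonic acid, 5 min; IC50 from 6/11-point curves.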

Series [1] deals with production of LTB4 in human PBMC (peripheral blood mononuclear cells). Description: Production of LTB4 in PBMC (LTB4 secretion assay). It counts as cell-based. To be noted: 12 point dose response in duplicate. As for the experimental part: Frozen human PBMC (peripheral blood mononuclear cells, AllCells, Cat#[…]) was diluted 50 times with fresh culture media (RPMI 1640 supplemented with 10% FBS, 2 mM L-alanyl-L-glutamine). Cells were harvested by centrifugation and resuspended in fresh culture media to a concentration of 5×10^6 cells per milliliter. 140 ul of cell suspension was then liquated to each well (96-well plate). After incubation at 37° C. for 1 hr under 5% CO2, 10 ul of serially diluted compounds (in 100% DMSO) and 10 ul of arachidonic acid to a final concentration of 30 uM were added and further incubated for 1 hr at 37° C. for 1 hr under 5% CO2. Then, inducers, such as A23187 (Ionophor), sodium arsenite, sodium chloride and/or Anti-DNP IgE, were added in a volume of 40 ul and cells were incubated at 37° C. for […]. Culture supernatant was harvested by centrifugation and LTB4 levels were quantified using LTB4 EIA kit (Cayman, Cat#520111). Six of the 378 compounds tested against the 5-LO enzyme in vitro were also selected to be tested for their activity in a human cellular assay. Compounds were tested in a 12 point dose response in duplicate.

Turning to `NNC(=O)c1ccncc1` [INH, Isoniazid, reference compound], the Log10CFU in the series on M. tuberculosis H37Rv is reported as 5.0 Log10CFU.
For orientation: inhibition means the share of the control response that was lost under treatment. Low values mean a response near the control, high ones a response far below the control. Broadly, the EC50 is the midpoint of the concentration-response curve. Regarding `CCc1nc2cc(Cl)ccn2c1C(=O)NCc1ccc2oc(-c3ccc(OC(F)(F)F)cc3)nc2c1` [compound 187, 7-Chloro-2-ethyl-N-((2-(4-(trifluoromethoxy)phenyl)benzo[d]oxazol-5-yl)methyl)imidazo[1,2-a]pyridine-3-carboxamide], the inhibition at 10 µM against Human 5-lipoxygenase was < 40%. In series [1], this compound returned an EC50 of 1000 to 20000 nM.
In general, IC50 refers to the point on the concentration scale where inhibition reaches its midpoint. A lower IC50 goes with inhibition by little substance. The term melting point denotes the temperature of the solid-liquid transition. `CCc1nc2ccc(Cl)cn2c1CNc1ccc(N2CCN(c3ccc(F)cc3)CC2)cc1` [compound 311, N-((6-Chloro-2-ethylimidazo[1,2-a]pyridin-3-yl)methyl)-4-(4-(4-fluorophenyl)piperazin-1-yl)aniline]: the melting point was in the range of 191 to 192 °C. For the same compound, on Human 5-lipoxygenase, the inhibition at 10 µM is > 69% and the IC50 is < 1000 nM. In series [1], this compound had an EC50 of 1000 to 20000 nM.
With `CCc1nc2cc([N+](=O)[O-])ccn2c1C(=O)NCc1ccc(N2CCC(Oc3ccc(OC(F)(F)F)cc3)CC2)cc1` [compound 312, 2-Ethyl-7-nitro-N-(4-(4-(4-(trifluoromethoxy)phenoxy)piperidin-1-yl)benzyl)imidazo[1,2-a]pyridine-3-carboxamide], at Human 5-lipoxygenase, the inhibition at 10 µM is > 69% and the IC50 is < 1000 nM. The EC50 in series [1] is < 1000 nM.
Consider `CCc1nc2ccc(Cl)cn2c1C(=O)N1CCC(OCc2ccc(OC(F)(F)F)cc2)CC1` [compound 313, (6-Chloro-2-ethylimidazo[1,2-a]pyridin-3-yl)(4-(4-(trifluoromethoxy)benzyloxy)piperidin-1-yl)methanone], for which, on Human 5-lipoxygenase, the inhibition at 10 µM was > 69% and the 50% inhibitory concentration (IC50) fell in the range of 1000 to 20000 nM. Also, the half-maximal effective concentration (EC50) in series [1] is < 1000 nM.
For `CCc1nc2ccc(Cl)cn2c1C(=O)N(C)Cc1ccc(N2CCN(c3ccc(F)cc3)CC2)cc1` [compound 314, 6-Chloro-2-ethyl-N-(4-(4-(4-fluorophenyl)piperazin-1-yl)benzyl)-N-methylimidazo[1,2-a]pyridine-3-carboxamide], the melting point was in the range of 148 to 149 °C. On Human 5-lipoxygenase, the inhibition at 10 µM was > 69% and the IC50 was 1000 to 20000 nM. The EC50 in series [1] was < 1000 nM.
On to `CCc1nc2cc(Cl)ccn2c1C(=O)NCc1nc2ccc(-c3ccc(OC(F)(F)F)cc3)cc2o1` [compound 374, 7-chloro-2-ethyl-N-((6-(4-(trifluoromethoxy)phenyl)benzo[d]oxazol-2-yl)methyl)imidazo[1,2-a]pyridine-3-carboxamide], for which the melting point was > 220 °C. Besides, the inhibition at 10 µM against Human 5-lipoxygenase is < 40%.
As for `CCc1nc2cc(Cl)ccn2c1C(=O)NCc1ccc(N2CC(Cc3ccc(F)cc3)OC2=O)cc1` (centres unmarked) [compound 377, 7-chloro-2-ethyl-N-(4-(5-(4-fluorobenzyl)-2-oxooxazolidin-3-yl)benzyl)imidazo[1,2-a]pyridine-3-carboxamide], the melting point was > 96.9 °C (dec.). For the same compound, at Human 5-lipoxygenase, the inhibition at 10 µM was < 40%.
Regarding `CCc1nc2cc(Cl)ccn2c1C(=O)NCc1ccc(N2CC(COc3ccc(F)cc3)OC2=O)cc1` (centres unmarked) [compound 378, 7-chloro-2-ethyl-N-(4-(5-((4-fluorophenoxy)methyl)-2-oxooxazolidin-3-yl)benzyl)imidazo[1,2-a]pyridine-3-carboxamide], the melting point is > 97.1 °C. Moreover, the inhibition at 10 µM on Human 5-lipoxygenase was < 40%.
On to `CCc1nc2ccc(Cl)cn2c1CNc1ccc(Oc2ccc(F)cc2)cc1` [compound 379, N-((6-Chloro-2-ethylimidazo[1,2-a]pyridin-3-yl)methyl)-4-(4-fluorophenoxy)aniline], for which the melting point fell in the range of 148.6 to 148.8 °C. The compound further showed a half-maximal inhibitory concentration (IC50) against Human 5-lipoxygenase of 1000 to 20000 nM.
The compound `CCc1nc2ccc(Cl)cn2c1CNc1ccc(-c2ccc(OC(F)(F)F)cc2)cc1` [compound 383, N-((6-chloro-2-ethylimidazo[1,2-a]pyridin-3-yl)methyl)-4′-(trifluoromethoxy)biphenyl-4-amine] came in with a melting point of 102 °C. For the same compound, the IC50 on Human 5-lipoxygenase was > 20000 nM.
In turn, `CCc1nc2ccc(Cl)cn2c1C(=O)N1CCC(Oc2ccc(OC(F)(F)F)cc2)CC1` [compound 384, (6-Chloro-2-ethylimidazo[1,2-a]pyridin-3-yl)(4-(4-(trifluoromethoxy)phenoxy)piperidin-1-yl)methanone] showed a melting point of 80.7 °C. At Human 5-lipoxygenase, this compound gave a half-maximal inhibitory concentration (IC50) of 1000 to 20000 nM.
The compound `CCc1nc2ncccn2c1C(=O)NCc1ccc(-c2ccc(Cl)cc2)cc1` [compound 386, N-((4′-Chloro-[1,1′-biphenyl]-4-yl)methyl)-2-ethylimidazo[1,2-a]pyrimidine-3-carboxamide] gave a melting point of 184.8 °C. The same compound yielded an IC50 against Human 5-lipoxygenase of 1000 to 20000 nM.
Compound `CCc1nc2ccc(Cl)cn2c1CNc1ccc(N2CCC(c3ccc(Cl)cc3)CC2)cc1` [compound 392, N-((6-chloro-2-ethylimidazo[1,2-a]pyridin-3-yl)methyl)-4-(4-(4-chlorophenyl)piperidin-1-yl)aniline] returned a melting point of 159.5 °C. In addition, at Human 5-lipoxygenase, the half-maximal inhibitory concentration (IC50) is 1000 to 20000 nM.
Compound `CCc1nc2ncccn2c1CNc1ccc(N2CCN(c3ccc(F)cc3)CC2)cc1` [compound 395, N-((2-Ethylimidazo[1,2-a]pyrimidin-3-yl)methyl)-4-(4-(4-fluorophenyl)piperazin-1-yl)aniline] returned a melting point of 210.7 °C. Moreover, the concentration for half-maximal inhibition (IC50) against Human 5-lipoxygenase is < 1000 nM.
`CCc1nc2cccnn2c1CNc1ccc(N2CCN(c3ccc(F)cc3)CC2)cc1` [compound 396, N-((2-Ethylimidazo[1,2-b]pyridazin-3-yl)methyl)-4-(4-(4-fluorophenyl)piperazin-1-yl)aniline] displayed a melting point of 192.7 °C. Also, the IC50 against Human 5-lipoxygenase is < 1000 nM.
The compound `CCc1nc2ccc(Cl)cn2c1COc1ccc(N2CCN(c3ccc(F)cc3)CC2)cc1` [compound 399, 6-chloro-2-ethyl-3-((4-(4-(4-fluorophenyl)piperazin-1-yl)phenoxy)methyl)imidazo[1,2-a]pyridine] showed a melting point of 161.3 °C. For the same compound, the IC50 against Human 5-lipoxygenase was < 1000 nM.
`CCc1nc2cc(Cl)ccn2c1COc1ccc(N2CCN(c3ccc(F)cc3)CC2)cc1` [compound 400, 7-chloro-2-ethyl-3-((4-(4-(4-fluorophenyl)piperazin-1-yl)phenoxy)methyl)imidazo[1,2-a]pyridine] returned a melting point of 167.5 °C. At Human 5-lipoxygenase, the 50% inhibitory concentration (IC50) was < 1000 nM.
For `Cc1nc2cccc(C)n2c1CNc1ccc(N2CCC(c3ccc(F)cc3)CC2)cc1` [compound 401, N-((2,5-dimethylimidazo[1,2-a]pyridin-3-yl)methyl)-4-(4-(4-fluorophenyl)piperidin-1-yl)aniline], the melting point came to 228.8 °C. Besides, the IC50 against Human 5-lipoxygenase was < 1000 nM.
Turning to `Cc1nc2cccc(C)n2c1CNc1ccc(N2CCN(c3ccc(F)cc3)CC2)cc1` [compound 402, N-((2,5-dimethylimidazo[1,2-a]pyridin-3-yl)methyl)-4-(4-(4-fluorophenyl)piperazin-1-yl)aniline], the melting point amounted to 196.4 °C. Also, the half-maximal inhibitory concentration (IC50) at Human 5-lipoxygenase was < 1000 nM.
Regarding `CCc1nc2ccc(F)cn2c1C(=O)NC1CCN(c2ccc(Nc3ccccc3)cc2)C1` (centres unmarked) [compound 403, 2-Ethyl-6-fluoro-N-(1-(4-(phenylamino)phenyl)pyrrolidin-3-yl)imidazo[1,2-a]pyridine-3-carboxamide], the melting point amounted to 224.7 °C. Further, on Human 5-lipoxygenase, the concentration for half-maximal inhibition (IC50) is < 1000 nM.
